The values that follow come from US20250144081A1, “METHODS FOR REDUCING ALCOHOL, DRUG, AND FOOD INTAKE” (The Scripps Research Institute, priority 2022, published 2025).

“Also recorded” adds a separate entry of the source.

Data set [1] has as its system C57BL/6J mice. In words: drinking in the dark (DID) binge drinking paradigm, alcohol intake. The data set is classed as in vivo, mouse. Conditions: for alcohol consumption in the DID paradigm over a 4 h drinking session: first 2 h and 4 h. As for the experimental part: The S1P agonists fingolimod (1, 2, and 4 mg/kg), ozanimod (0.25, 0.5, and 1 mg/kg) and CYM-5442 (1.25, 2.5, and 5 mg/kg) (Tocris, Minneapolis, MN, USA) were suspended in saline with 1% (w/v) Tween 80 and administered intraperitoneally (i.p.) (injection volume in mice 10 ml/kg, in rats 2 ml/kg). Pretreatment time was 30 min for fingolimod and ozanimod, while CYM-5442 was injected 60 min before each behavioral experiment.
Acute effect of the S1P agonists was tested in alcohol binge-like drinking in male and female C57BL/6J mice exposed to the drinking in the dark paradigm. As described by Rhodes and colleagues (Rhodes et al. Physiol Behav 84:53-63, 2005; Thiele et al. Alcohol 48:235-41, 2014) 3 h after lights go off, the water bottle of single-housed mice was replaced with a bottle containing 20% (v/v) alcohol and left in place for 2 h, over three consecutive days during which mice stabilized alcohol drinking. […] Over the experiment, the amount of alcohol consumed by mice was measured by weighing (0.01 g accuracy) the bottle immediately before and after each drinking session. Alcohol consumption was expressed as grams of pure alcohol per kilogram of body weight (g/kg). In addition, at the end of the second 2 h drinking session, blood samples were collected from the tip of the tail of each mouse and BALs were measured.

In data set [2] the test system is C57BL/6J mice. Kind of data set: loss of righting reflex (LORR), sensitivity to alcohol's hypnotic action. It is filed as in vivo, mouse.
Data set [3] has as its system C57BL/6J mice. Kind of data set: saccharin consumption in the DID paradigm. The data set is classed as in vivo, mouse. Conditions: CYM-5442 5 mg/kg i.p., male C57BL/6J mice, first 2 h and 4 h. The text has this:
An identical experimental plan was adopted to evaluate acute effects of CYM-5442 on the no-drugs reinforcer saccharin (0.002% w/v). Independent groups of C57BL/6J mice were used for testing the effect of CYM-5442 on saccharin intake.

Data set [4] deals with C57BL/6J mice. Kind of data set: rotarod test, motor coordination, mice. It is filed as in vivo, mouse. Conditions: CYM-5442; male C57BL/6J mice. As for the experimental part: (§1) Effect of CYM-5442 on motor coordination was evaluated in male and female C57NBL/6J mice and male Wistar rats in the rotarod apparatus (Rotamex-5, Columbus Instruments, USA). Briefly, one week before testing, animals were extensively habituated to handling and intraperitoneal injections. On test day, animals were weighed and allocated into the four experimental groups. CYM-5442 or vehicle were injected intraperitoneally 60 min before the start of the first trial. Each subject underwent 3 trials of 300 s (intertrial interval 60 s) with a rotarod acceleration from 4 to 40 rpm. Trials in which animals fell before 5 s, calculated from the beginning of the trial, were repeated. For each animal, the latency to fall was assessed and expressed as the average values over the 3 trials.
(In the rotarod test animals must keep their balance on a rotating rod.)

In data set [5] the test system is Wistar rats. In words: intravenous methamphetamine self-administration (FR1 and progressive ratio). The note with it: CYM-5442 5 mg/kg i.p., male Wistar rats, vs vehicle. The data set is classed as in vivo, rat. As for the experimental part: The effect of CYM-5442 was tested on methamphetamine self-administering rats. Male Wistar rats were aseptically implanted with chronic silastic catheters in the right jugular vein and were trained to self-administer methamphetamine (1 h/day at a dose of 0.05 mg/kg/infusion). Rats were trained to self-administer methamphetamine under a fixed-ratio 1 schedule of reinforcement (FR1) whereby one lever press results in the delivery of one methamphetamine infusion (0.05 mg/kg) under 1-h daily sessions.
Male Wistar rats were aseptically implanted with intravenous catheters in the right jugular vein under deep isoflurane anesthesia as previously described in Ahmed et al. (Proc Natl Acad Sci USA 102:11533-8). At the time of testing, the rats' body weights ranged between 350 and 400 g.
Self-administration was performed in operant conditioning chambers (Med Associates, St. Albans, VT, USA) that were enclosed in lit, sound-attenuating, ventilated environmental cubicles. Methamphetamine was delivered through plastic catheter tubing that was connected to an infusion pump. The infusion pump was activated by responses on the right (active) lever. […] A computer controlled fluid delivery and behavioral data recording. All of the rats were tested for methamphetamine self-administration on a continuous reinforcement (fixed ratio 1, FR1) schedule. […] A 20-s timeout (TO) period followed each METH infusion. […]

Data set [6] has as its system Wistar rats. In words: rotarod test, motor coordination, rats. The data set is classed as in vivo, rat. The note with it: CYM-5442 5 mg/kg; male Wistar rats. As for the experimental part: as §1
Data set [7] deals with C57BL/6J mice. Kind of data set: acute food intake in 4 h sessions (CLAMS). The data set is classed as in vivo, mouse. Conditions: vs 0 mg/kg. As to the method:
The acute effect of CYM-5442 on food intake was measured in 4 h sessions. CYM-5442 was administered 1 h before the sessions. CYM-5442 reduced food intake in a dose-dependent manner at the doses of 2.5 and 5 mg/Kg in the first 2 h (FIG. 7A) and at the dose of 5 mg/kg after 4 h (FIG. 7B).
(§2) Effect of CYM-5442 was evaluated on food (g) and water intake (ml) and respiratory exchange ratio (RER: VCO2/VO2) of male C57BL/6J mice (n=30) allocated into CLAMS (Comprehensive Lab Animal Monitoring System, Columbus Instruments, Columbus, OH USA) chambers. After 1-week acclimatization, on test day, mice were removed from the metabolic chambers, injected with CYM-5442 60 min before 3 h into the dark of the light/dark cycle and then placed back into the chambers. Food, water intake and RER were monitored starting the 1st to the 12th h of the dark phase of the light/dark cycle.

Data set [8] deals with C57BL/6J mice. Kind of data set: respiratory exchange ratio (RER) by indirect calorimetry (CLAMS). The data set is classed as in vivo, mouse. As for the experimental part:
The effect of CYM-5442 on energy metabolism was tested by indirect calorimetry with the Comprehensive Lab Animal Monitoring System (CLAMS; Columbus Instruments, Columbus, OH USA). After 1-week acclimatization, on test day, mice were removed from metabolic chambers, injected with CYM-5442 3 h into the dark phase of the light/dark cycle and then placed back into chambers. […] The RER indicates the energy source the organism uses over the day. It is typically measured on a scale from 0.7 to 1.
as §2

Data set [9] relates to C57BL/6J mice. Kind of data set: chronic treatment of LFD- or HFD-fed mice: body weight, food and water intake. The data set is classed as in vivo, mouse. As to the method:
(§3) The effect of chronic daily administration of CYM-5442 on body weight and body fat content was tested in mice fed either a low-fat diet (LFD; D12450K, 10 kcal % Fat, Research Diets, Inc. NJ, US) or a high-fat diet (HFD; D07011903, 45 kcal % Fat) ad libitum. Mice were treated with CYM-5442 (2.5 mg/kg, i.p.) or vehicle 5 days a week over 7 consecutive weeks. […] This is consistent with the moderate half-life of the drug that allows adlibitum fed mice to eat through the day. This finding supports that the metabolic effect of CYM-5442 of increased fat utilization or lipolysis is independent of reduction of food intake.

Data set [10] relates to C57BL/6J mice. Kind of data set: body composition by quantitative nuclear magnetic resonance (qNMR) after chronic treatment. It is filed as in vivo, mouse. The note with it: chronic CYM-5442 2.5 mg/kg i.p. As for the experimental part:
as §3
Body composition was determined with a quantitative nuclear magnetic resonance instrument (qNMR, Echo MRI, Houston, TX).

For data set [11] the following is noted: in words only; cited from earlier work.
Data set [12] can be described thus: rotarod test, motor impairment by S1P receptor agonists (fingolimod). The note with it: in vivo.
The next data set in a line: body weight (fingolimod). The note with it: in vivo.
Data set [13] relates to mice with degenerative and inflammatory conditions. Conditions: cited from earlier work.
A further data set deals with MeCP2^308/Y mice. In words: DID paradigm in low drinking MeCP2^308/Y mice, alcohol intake and BALs. It is filed as in vivo, mouse. The note with it: PF-543 10 mg/kg i.p., 30 min before the drinking session.
Setting [14] is: CYM-5442 2.5 mg/kg i.p. chronic, HFD-fed or LFD-fed mice, vs vehicle.

Take `CCOc1ccc(-c2nc(-c3cccc4c3CCC4NCCO)no2)cc1OCC` (centres unmarked) [CYM-5442]: in the data set on C57BL/6J mice [1] (CYM-5442 2.5, 5 mg/kg i.p., male C57BL/6J mice), the “alcohol consumption in the DID paradigm over a 4 h drinking session” value is given as “reduces”. The “duration of loss of righting reflex (LORR)” value in the data set on C57BL/6J mice [2] (CYM-5442 2.5 mg/kg i.p., alcohol 3.5 g/kg, male C57BL/6J mice) is reported as “significantly increases”. Also, in the data set on C57BL/6J mice [3], the “saccharin [0.002% (w/v)] consumption in the DID paradigm over a 4 h drinking session” value is “reduces”. The “motor coordination performance in the rotarod apparatus (latency to fall, active run time)” value in the data set on C57BL/6J mice [4] was “did not affect; also recorded: does not alter”. In the data set on Wistar rats [5] (acute), the “lever-responding for methamphetamine, fixed-ratio 1 (FR1), 1-h self-administration session” value is on record as “significantly reduced”. Further, in the data set with Wistar rats [5], the “methamphetamine self-administration under progressive ratio (PR) schedule, break point” value is recorded as “significantly reduced; also recorded: lower”. For the same compound, the “motor coordination in the rotarod apparatus” value in the data set with Wistar rats [6] is on record as “did not affect”. For the same compound, the “food-intake during the 1st 2-hrs” value in the data set with C57BL/6J mice [7] (CYM-5442 2.5 mg/kg and 5 mg/kg) is “significantly reduced”. Also, the “food-intake over the entire 4-hrs session” value with C57BL/6J mice [7] (CYM-5442 5 mg/kg) is given as “reduced”. Further, the “Respiratory Exchange Ratio (RER), time course” value with C57BL/6J mice [8] (CYM-5442 i.p. 1.25, 2.5, 5 mg/kg, for 1-3 hours, dose-dependent) is listed as “significantly lower; also recorded: significantly reduced”. Moreover, the “RER, average of 2 hours, first 2 hrs measure point (1-3 hrs after injection)” value with C57BL/6J mice [8] (CYM-5442 i.p., 0 mg/kg vs 5 mg/kg) is listed as “significantly reduced”. Also, in the data set with C57BL/6J mice [9] (setting [14]), the “overall daily (24 h) food intake” value is recorded as “did not differ” and the “overall daily (24 h) water intake” value is on record as “did not differ”. Besides, the “body weight gain in HFD-fed mice” value in the data set with C57BL/6J mice [9] (CYM-5442 2.5 mg/kg i.p. daily, 5 days a week over 7 weeks, vs vehicle-treated HFD-fed mice) is on record as “effectively prevented”. Besides, in the data set on C57BL/6J mice [10], the “body fat in the low-fat diet (LFD)-fed control group (reduction)” value was “not” and the lean body mass result is given as “without affecting”. Further, in the data set on C57BL/6J mice [10] (vs vehicle in HFD, 2.5 mg/kg), the “body fat in the HFD-fed group” value was “significantly reduced”. The “half-life (circulating)” value in data set [11] is reported as “longer; also recorded: moderate”.

As for `CCCCCCCCc1ccc(CCC(N)(CO)CO)cc1` [fingolimod], the “alcohol consumption in the DID paradigm over a 4 h drinking session” value with C57BL/6J mice [1] (fingolimod 4 mg/kg i.p., C57BL/6J mice) was “reduced”. Moreover, the “motor impairment, performance in the rotarod test” value in data set [12] is on record as “did not impair”. In addition, the body weight entry in “body weight (fingolimod)” was “did not affect”. In data set [13], the motor deficits result is given as “ameliorated”. Besides, the “half-life (circulating)” value in data set [11] was “longer”.

In the case of `CC(C)Oc1ccc(-c2nc(-c3cccc4c3CC[C@@H]4NCCO)no2)cc1C#N` [ozanimod, Ozanimod (RPC1063)], the “alcohol consumption at the end of the 4-h drinking session (reducing effect)” value in the data set on C57BL/6J mice [1] (ozanimod 0.25-1 mg/kg i.p., C57BL/6J mice, 4 h, p>0.05) is “not evident”. Besides, the “alcohol consumption in the DID paradigm after 2 h” value in the data set with C57BL/6J mice [1] (ozanimod 0.25-1 mg/kg i.p., C57BL/6J mice, first 2 h, p<0.05) was “reduced”. Besides, the “duration of loss of righting reflex (LORR)” value in the data set with C57BL/6J mice [2] (ozanimod 0.1 and 0.3 mg/kg i.p., C57BL/6J mice) was “significantly increased”. Also, the motor deficits entry in data set [13] was “ameliorated”. The “half-life (circulating)” value in data set [11] was “short”.

As to `Cc1cc(CS(=O)(=O)c2ccccc2)cc(OCc2ccc(CN3CCC[C@@H]3CO)cc2)c1` [PF-543], the “alcohol consumption of MeCP2^308/Y mice in the DID paradigm” value with MeCP2^308/Y mice is reported as “increased”.
